# Data as given in ChEMBL document CHEMBL1144606, “Immunomodulatory effects of two sapogenins 1 and 2 isolated from Luffa cylindrica in Balb/C mice” (Bioorg Med Chem Lett, 2007).
# Calls of active or inactive are those of the source. The rule behind the calls is not given here.
# Legend:
# [1] = tested on: Mus musculus; assay: Immunostimulatory effect against SRBC-inducing plaque forming cells in BALB/c mouse assessed as antibody secreting B cells at 10 mg/kg, po relative to control; format: functional, organism-based; set-up: dose 10 mg/kg
# [2] = tested on: Mus musculus; assay: Enhancement of ConA-Stimulated lymphocyte proliferation in BALB/c mouse at 10 mg/kg by MTT assay; format: functional, organism-based; set-up: dose 10 mg/kg
# [3] = tested on: Splenocyte; assay: Enhancement of ConA-stimulated blastogenic responsiveness in BALB/c mouse splenocytes at 10 mg/kg; format: functional, organism-based; set-up: dose 10 mg/kg
# [4] = tested on: Mus musculus; assay: Increased phagocytic index in BALB/c mouse at 10 mg/kg; format: organism-based; set-up: dose 10 mg/kg; details: in vivo
# [5] = tested on: Mus musculus; assay: Immunostimulatory effect against SRBC-inducing plaque forming cells in BALB/c mouse assessed as antibody secreting B cells at 100 mg/kg, po relative to control; format: functional, organism-based; set-up: dose 100 mg/kg
# [6] = tested on: Mus musculus; assay: Enhancement of ConA-Stimulated lymphocyte proliferation in BALB/c mouse at 100 mg/kg by MTT assay; format: functional, organism-based; set-up: dose 100 mg/kg
# [7] = tested on: Splenocyte; assay: Enhancement of ConA-stimulated blastogenic responsiveness in BALB/c mouse splenocytes at 100 mg/kg; format: functional, organism-based; set-up: dose 100 mg/kg
# [8] = tested on: Splenocyte; assay: Enhancement of LPS-stimulated blastogenic responsiveness in BALB/c mouse splenocytes at 100 mg/kg; format: functional, organism-based; set-up: dose 100 mg/kg
# [9] = tested on: Mus musculus; assay: Enhancement of LPS-Stimulated of lymphocyte proliferation in BALB/c mouse at 100 mg/kg by MTT assay; format: functional, organism-based; set-up: dose 100 mg/kg
# [10] = tested on: Mus musculus; assay: Immunostimulatory effect against SRBC-induced hormonal response in BALB/c mouse assessed as antibody production at 10 m/kg; format: functional, organism-based
# [11] = tested on: Mus musculus; assay: Immunostimulatory effect against SRBC-inducing hormoral response in BALB/c mouse assessed as antibody production at 100 mg/kg; format: functional, organism-based; set-up: dose 100 mg/kg
# [12] = tested on: Mus musculus; assay: Enhancement of LPS-Stimulated lymphocyte proliferation in BALB/c mouse at 10 mg/kg by MTT assay; format: functional, organism-based; set-up: dose 10 mg/kg
# [13] = tested on: Splenocyte; assay: Enhancement of LPS-stimulated blastogenic responsiveness in BALB/c mouse splenocytes at 10 mg/kg; format: functional, organism-based; set-up: dose 10 mg/kg
SMILES,Activity [1],Activity [2],Activity [3],Activity [4],Activity [5],Activity [6],Activity [7],Activity [8],Activity [9],Activity [10],Activity [11],Activity [12],Activity [13]
CC1(C)CC[C@]2(C(=O)O)[C@H](O)C[C@]3(C)C(=CC[C@@H]4[C@@]5(C)CC[C@H](O)C(C)(C)[C@@H]5CC[C@]43C)[C@@H]2C1,Active,Active,Active,Active,Active,Active,Active,Active,Active,–,–,–,–
CC1(C)CC[C@]2(C(=O)O)CC[C@]3(C)C(=CC[C@@H]4[C@@]5(C)CC[C@H](O)C(C)(C)[C@@H]5CC[C@]43C)[C@@H]2C1 [OLEANOLIC_ACID],Active,Active,Active,Active,Active,Active,Active,–,–,Active,inactive,Active,Active
